Measurements reported in patent US20060025406A1, “Modulators of hepatocyte growth factor/c- Met activity” (Angion Biomedica Corporation, priority 2004, published 2006).

Experiments:
HUVEC cells = assay: HGF/SF-induced HUVEC cell proliferation ([3H]-thymidine incorporation); type: cell-based, human; conditions: HGF/SF 25 ng/ml, overnight, FIG. 1A
Method: Compounds of the invention were tested for HGF/SF inhibitory activity in HGF/SF-induced HUVEC cell proliferation in vitro. Briefly, HUVEC cells were seeded into 48-well plates and serum starved for 2 hours in medium containing 1% BSA, and then treated with test compounds in multiple concentrations in the presence or absence of HGF/SF (25 ng/ml, R&D Systems) overnight. This experiment also included negative (vehicle alone) and positive (HGF/SF alone) controls. Cell proliferation was measured by the incorporation of [^3H]-thymidine and counted using Beta scintillation counter.

[1] = tested on: A549 human lung carcinoma cells; assay: MTT assay, cell viability; type: cell-based; conditions: 72 hours continuous exposure
Method: To investigate the effect of c-Met antagonist compound A on inhibiting the growth of A549 human lung carcinoma cells in vitro, an MTT assay was carried out to determine cell viability. Cells were plated in 96-well plates at 5000 cells/well in complete medium, in the absence of drug. After 24 hours to allow for cell attachment, cells were incubated for 72 hours with the tested compounds (5 different concentrations) or vehicle. Cells were then exposed to MTT for 4 hours, and absorbance was measured at a wavelength of […].

[2] = tested on: A549 human lung carcinoma cells; assay: A549 subcutaneous xenograft; type: in vivo, Balb C nude mice; conditions: 5 mg/kg i.p. daily for 3 weeks
Method: To investigate the effect of c-Met antagonist compound A on inhibiting the growth of A549 human lung carcinoma cells in vivo, 2×10^6 cells of A549 were injected subcutaneously into the right hind flank of male Balb C nude mice. Tumors were allowed to develop for 12 days and then animals were treated with compound A at 5 mg/kg i.p. daily for 3 weeks. Tumor size measurements were made twice weekly and volumes calculated ((length×width^2)/2 (mm^3)) Final weight of excised tumors was measured at the end of the 3-week treatment period (0.78 g for control vs. 0.05 g for compound A treated).

IC50 [1] [µM]	SMILES	inhibition of HGF/SF stimulation of endothelial cell proliferation (HUVEC cells)	tumor volume and weight [2]	final weight of excised tumors ([2]; control 0.78 g) [g]
2.9	OCc1ccccc1Sc1ccccc1CNc1nc(NC2CCCC2)c2ccccc2n1 [compound A]	inhibited HGF/SF stimulation of endothelial cell proliferation	significantly reduced tumor volume and weight	0.05
–	CC(C)=CC1C(CNc2nc(Nc3ccccc3C(C)C)c3ccccc3n2)C1(C)C (centres unmarked) [B]	inhibited HGF/SF stimulation of endothelial cell proliferation	–	–
